Data reported in article PMC5507339, “Small-molecule inhibition of pyruvate phosphate dikinase targeting the nucleotide binding site” (PLoS ONE, 2017).
“Also recorded” adds a separate entry of the source.

Key:
[1] = biological target: T1, PPDK from Flaveria trinervia (Flaveria trinervia, UniProt P22221); assay: biochemical; conditions: for IC50: 0.2 μM PPDK, inhibitor 0-200 μM, mean ± standard error; for Residual PPDK activity relative to DMSO-treated controls: inhibitor 100 μM
T1 construct: His10 (N); TEV cleavage site (N); made in house; host or cells: E. coli BL21 (DE3)
T1 sequence (P22221 80-953): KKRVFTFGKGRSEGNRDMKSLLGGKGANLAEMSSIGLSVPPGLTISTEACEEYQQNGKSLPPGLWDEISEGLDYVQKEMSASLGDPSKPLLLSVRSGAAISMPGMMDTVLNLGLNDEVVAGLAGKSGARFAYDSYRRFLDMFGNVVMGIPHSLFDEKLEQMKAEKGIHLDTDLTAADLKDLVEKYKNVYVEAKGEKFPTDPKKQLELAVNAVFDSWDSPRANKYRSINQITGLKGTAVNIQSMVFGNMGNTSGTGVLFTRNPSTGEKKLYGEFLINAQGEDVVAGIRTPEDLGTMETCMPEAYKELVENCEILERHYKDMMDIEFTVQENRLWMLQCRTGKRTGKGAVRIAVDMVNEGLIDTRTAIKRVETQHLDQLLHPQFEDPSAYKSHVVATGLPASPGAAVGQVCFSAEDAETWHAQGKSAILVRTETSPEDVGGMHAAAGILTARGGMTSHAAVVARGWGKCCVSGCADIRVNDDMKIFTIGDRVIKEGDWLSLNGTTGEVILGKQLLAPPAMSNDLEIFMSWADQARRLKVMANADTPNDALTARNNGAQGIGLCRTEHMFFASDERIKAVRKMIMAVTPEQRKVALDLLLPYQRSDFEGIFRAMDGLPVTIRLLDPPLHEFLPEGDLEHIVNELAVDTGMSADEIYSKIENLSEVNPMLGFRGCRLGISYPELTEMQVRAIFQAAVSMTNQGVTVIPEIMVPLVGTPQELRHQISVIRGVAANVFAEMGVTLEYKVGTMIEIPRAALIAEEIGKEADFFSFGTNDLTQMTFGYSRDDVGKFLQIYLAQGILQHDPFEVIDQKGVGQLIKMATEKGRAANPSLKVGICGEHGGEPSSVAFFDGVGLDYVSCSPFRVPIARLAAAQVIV
Description: Heterologous gene expression and purification of the recombinant PPDK were performed as described in [11]. A modified pET-16b vector (Merck, Darmstadt, GER) which contained an N-terminal histidine10 tag, followed by a TEV cleavage site and the sequence encoding for PPDK from Flaveria trinervia (EMBL X75516) was used for heterologous expression in E. coli strain BL21 (DE3). Transformed cells were grown to an OD600 of 0.6–0.8 in 2YT medium at 30°C before expression was induced by the addition of 0.1 mM isopropyl-β-D-1-thiogalactopyranoside. Cells were harvested after over night incubation at 30°C and 180 rpm. Preceding purification, cells were resuspended in lysis buffer (50 mM Tris/HCl pH 7.5, 300 mM NaCl, 10 mM imidazole, 10 mM MgSO4, 10% (w/v) glycerol, 5 mM DTT, 0.002% (w/v) phenylmethanesulfonylfluoride) and disrupted using a cell disruptor (Constant Systems). PPDK was purified using a nickel affinity chromatography column (GE Healthcare, Munich, GER). Purification (50 mM Tris/HCl pH 7.5, 300 mM NaCl, 10 mM MgSO4, 10% (w/v) glycerol, 5 mM DTT) and elution buffer (50 mM Tris/HCl pH 7.5, 300 mM NaCl, 500 mM imidazole, 10 mM MgSO4, 10% (w/v) glycerol, 5 mM DTT) were used for further purification steps. PPDK bound to the column was washed in steps of 50 mM, 150 mM and 200 mM imidazole, before final elution with 500 mM imidazole. Protein-rich fractions were pooled and a PD-10 desalting column (GE Healthcare) was used to change the elution buffer for assay buffer (100 mM Tris/HCl pH 8.0, 10 mM MgCl2, 2.5 mM KH2PO4, 6 mM glucose-6-phosphate, 5 mM NaHCO3, 0.1 mM EDTA, 5 mM DTT). The buffer-exchanged sample was eventually concentrated by ultrafiltration (30 kDa cutoff, Millipore).
Activity of purified PPDK was measured according to Salahas et al., Doyle et al. in a 96 well microtiter plate layout by a coupled spectrophotometrical assay. In this assay, the carboxylation of PEP by PEPC is linked to the oxidation of NADH by NADH-malate dehydrogenase (NADH-MDH). PEP is formed by PPDK via ATP-driven phosphorylation of pyruvate. Eventually, the consumption of one molecule NADH is equivalent to the formation of one molecule of PEP by PPDK. The assay was performed in a sample volume of 100 μL at 30°C in a M200 plate reader (Tecan, Crailsheim, GER). 0.2 μM PPDK were mixed with 0.2 mM NADH, 2.5 mM sodium pyruvate, 0.8 U bacterial PEPC (Sigma-Aldrich, Darmstadt, GER) and 2 U NADH-MDH (Sigma-Aldrich). The reaction mixture was filled up to a total volume of 100 μL per sample with assay buffer (100 mM Tris/HCl pH 8.0, 10 mM MgCl2, 2.5 mM KH2PO4, 6 mM glucose-6-phosphate, 5 mM NaHCO3, 0.1 mM EDTA, 5 mM DTT). PPDK was pre-incubated for 20 min at 30°C to ensure full activity. Inhibitors were dissolved in water free dimethyl sulfoxide (DMSO) with a final concentration of 10 mM and were added prior to adjusting the final sample volume. To account for possible effects of DMSO on PPDK activity, the solvent was added to the controls in an amount equal to the largest DMSO concentration used in the experiments. Incubation time of the final sample mixture including inhibitors and PPDK was 15 min. Initial comparative screening was perfomed using 100 μM of each compound. The absorbance at 340 nm was recorded for 30 s with an interval of 300 ms. […] A four-parameter log-logistic dose-response curve was then globally fitted to the individual replicates using the R software collection and the R package “drc” [28] as proposed by assessment of Akaike’s information criterion (AIC). PPDK was incubated for 10 min with the inhibitors before each measurement. To exclude PEPC or NADH-MDH inhibition by the selected compounds, the initial screening assay was repeated in triplicates for those compounds without adding PPDK and starting the reaction by injection of PEP instead of ATP.

[2] = biological target: receptor tyrosine kinases; parameters: method as in PMID 16648571; conditions: ATP-competitive; cited from earlier work
Zea mays leaf slices = assay: Inhibition of oxygen evolution during C4 photosynthesis, leaf slices, Clark-type O2 electrode; type: cell-based; conditions: for inhibition at 20 µg/mL: 20 μg mL^−1; for inhibition at 40 µg/mL: 40 μg mL^−1
Description: Oxygen (O2) evolution, driven by the C4 acid cycle, was measured according to refs [21, 22, 31]. The reaction chamber of a Clark-type O2 electrode (Hansatech, Norfolk, UK) was filled with 1 mL of degassed buffer containing 0.33 M sorbitol, 2.5 mM NaH2PO4, 2.5 mM MgCl2, 25 mM HEPES/KOH pH 7.5, 50 μM MnCl2 and 2.5 mM dithiothreitol (DTT). An area sized approx. 1 cm^2 was cut from a mature leaf of the C4 model plant Zea mays and processed into slices of ∼ 1 mm width. The leaf slices were added to the electrode chamber and the recording of O2 evolution was started while keeping the chamber in the dark. The O2 evolution rate recorded in this period was later substracted from the subsequently recorded rates to account for the electrode drift. Once the system had stabilized, the chamber was illuminated using a Schott KL 1500 electronic light source. Again, the system was given time to stabilize before the C4-driven O2 evolution was initiated by the addition of first NaHCO3 and then pyruvate in final concentrations of 4 mM each. […] All measurements were done in triplicates.
Directly following the measurement, leaf slices were removed from the chamber and transferred to 1 mL of 80% acetone (v/v) for chlorophyll extraction. The samples were kept at 4°C in the dark for 48 h.

Zea mays PPDK = test system: Zea mays PPDK; parameters: method as in earlier work; conditions: PPDK from leaf extracts; ref 21 (Haines et al.); cited from earlier work

Cc1ccc(F)c(NC(=O)Nc2ccc(-c3cccc4[nH]nc(N)c34)cc2)c1 [ABT-869]
IC50 [1]: 11.2 ± 0.24 µM | Residual PPDK activity relative to DMSO-treated controls [1]: below 30% | IC50 [2]: 0.004 µM

O=C1NC(=O)C(c2c[nH]c3ccccc23)=C1c1c[nH]c2ccccc12 [BIM IV, bisindolylmaleimide IV]
IC50 [1]: 0.76 ± 0.13 µM | inhibition at 20 µg/mL (Zea mays leaf slices): 20% | inhibition at 40 µg/mL (Zea mays leaf slices): 36%

CN(C)CC1CCn2c(c(C3=C(c4cn(C)c5ccccc45)C(=O)NC3=O)c3ccccc32)C1 (stereo not shown) [BIM XI, bisindolylmaleimide XI]
Effect on PPDK activity ([1]; initial screening): did not show any effect; also recorded: no effect

COc1ccc2c(c1)c(C1=C(c3c[nH]c4ccccc34)C(=O)NC1=O)cn2CCCN(C)C [Go6983]
IC50 [1]: 1.5 ± 0.6 µM | inhibition at 20 µg/mL (Zea mays leaf slices): 19% | inhibition at 40 µg/mL (Zea mays leaf slices): 29%

CN1C(=O)C(c2c[nH]c3ccccc23)=C(c2c[nH]c3ccccc23)C1=O [bisindolylmaleimide V]
Residual PPDK activity relative to DMSO-treated controls [1]: 15%

C=C1CCC[C@H]2[C@](C)(CC3=C(O)C(=O)C=C(OC)C3=O)[C@@H](C)CC[C@]12C [ilimaquinone]
IC50 (Zea mays PPDK): 292 ± 23 µM | IC50 [1]: 740 ± 566 µM
